{
  "source": "patent US9750789B2",
  "about": "“Use of matrix metalloproteinase inhibitors to treat tuberculosis” (priority 2011, dated 2017)",
  "key": {"[1]": {"test_system": "primary human bronchial epithelial cells", "assay": "Total protein in bronchial epithelial cell culture supernatants (Bradford)", "conditions": "Bradford analysis, data not shown"}, "[2]": {"test_system": "primary human macrophages", "assay": "Total protein accumulation in cell culture supernatants (Bradford)", "conditions": "macrophage supernatants, doxycycline groups"}, "[3]": {"conditions": "MacArthur et al 1978; cited from earlier work"}, "bioluminescent Mtb [4]": {"test_system": "bioluminescent Mtb", "assay": "MIC determination with bioluminescent Mtb", "format": "cell-based, Mycobacterium tuberculosis"}, "bioluminescent Mtb [5]": {"test_system": "bioluminescent Mtb", "assay": "microbe, parasite or virus in culture", "format": "cell-based, Mycobacterium tuberculosis"}, "MMP-1 [6]": {"test_system": "MMP-1", "conditions": "Rand et al 2009; cited from earlier work"}, "MMP-1 [7]": {"test_system": "MMP-1", "assay": "MMP-1 secretion by stimulated primary human monocytes", "format": "cell-based", "conditions": "Pam3Cys 5 μg/ml, 24 h"}},
  "note": "Entries after “also recorded” stand apart in the source; their conditions may differ.",
  "data": [
    {"compound": "C[C@H]1c2cccc(O)c2C(=O)C2=C(O)[C@]3(O)C(=O)C(C(N)=O)=C(O)[C@@H](N(C)C)[C@@H]3[C@@H](O)[C@@H]21", "note": "[Doxycycline, doxycycline]", "values": [
      {"measurement": "total protein in cell culture supernatants", "setting": "[1]", "value": "no different between groups"},
      {"measurement": "protein accumulation in the cell culture supernatants", "setting": "[2]", "value": "the same in each group"},
      {"measurement": "peak concentration in serum", "setting": "[3]", "value": 3.2, "unit": "µg/mL"},
      {"measurement": "drop in relative light units", "setting": "bioluminescent Mtb [4]; 2.5 μg/ml doxycycline, at 2 days", "value": 1, "unit": "log"},
      {"measurement": "MIC", "setting": "bioluminescent Mtb [4]; Mycobacterium tuberculosis, bioluminescent Mtb, confirmed by Resazurin, read-out: minimum inhibitory concentration (MIC)", "value": 2.5, "unit": "µg/mL"},
      {"measurement": "MBC/MIC ratio", "setting": "bioluminescent Mtb [5]", "value": 16},
      {"measurement": "MBC", "setting": "bioluminescent Mtb [5]; Mycobacterium tuberculosis, 72 h, luminescence monitored over 3 days, read-out: minimum bactericidal concentration (MBC)", "value": 40, "unit": "µg/mL"}
    ]},
    {"compound": "Nc1ccc(C(=O)O)c(O)c1", "note": "[P-amino-salicylic acid]", "values": [
      {"measurement": "MMP-1 secretion by Mtb-infected macrophages", "setting": "MMP-1 [6]", "value": "inhibits"}
    ]},
    {"compound": "Pam3Cys", "values": [
      {"measurement": "MMP-1 secretion", "setting": "MMP-1 [7]", "value": "increased; also recorded: up-regulated MMP-1 equivalently to live Mtb"}
    ]}
  ]
}
